Test system: NOMO1
Experiment: cell viability relative to DMSO control; higher = less cytotoxic
Conditions: 48 h
Procedure, shortened: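 NOMO1 or SEM cells were plated at 500 cells/well and P12-Ichikawa cells at 1000 cells/well in 1536-well plates (5 μl), after each leukemia line had been adapted for at least four passages in each medium. Pin dosing delivered library compounds in DMSO at 11 threefold concentrations, 47 μM to 0.79 nM. CellTiter-Glo One luminescence was read after 48 h at 37°C. Viability is reported as a per-plate percentage of DMSO wells, with cell-free wells as background.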

[1] = HPLM + 10% dialyzed FBS, 0.000781 µM
[2] = HPLM + 10% dialyzed FBS, 0.00234 µM
[3] = HPLM + 10% dialyzed FBS, 0.00702 µM
[4] = HPLM + 10% dialyzed FBS, 0.0211 µM
[5] = HPLM + 10% dialyzed FBS, 0.0632 µM
[6] = HPLM + 10% dialyzed FBS, 0.19 µM
[7] = HPLM + 10% dialyzed FBS, 0.569 µM
[8] = HPLM + 10% dialyzed FBS, 1.71 µM
[9] = HPLM + 10% dialyzed FBS, 5.12 µM
[10] = HPLM + 10% dialyzed FBS, 15.4 µM
[11] = HPLM + 10% dialyzed FBS, 46.1 µM
[12] = RPMI 5 mM glucose + 10% FBS, 0.000781 µM
[13] = RPMI 5 mM glucose + 10% FBS, 0.00234 µM
[14] = RPMI 5 mM glucose + 10% FBS, 0.00702 µM
[15] = RPMI 5 mM glucose + 10% FBS, 0.0211 µM
[16] = RPMI 5 mM glucose + 10% FBS, 0.0632 µM
[17] = RPMI 5 mM glucose + 10% FBS, 0.19 µM
[18] = RPMI 5 mM glucose + 10% FBS, 0.569 µM
[19] = RPMI 5 mM glucose + 10% FBS, 1.71 µM
[20] = RPMI 5 mM glucose + 10% FBS, 5.12 µM
[21] = RPMI 5 mM glucose + 10% FBS, 15.4 µM
[22] = RPMI 5 mM glucose + 10% FBS, 46.1 µM
[23] = RPMI 5 mM glucose + 10% dialyzed FBS, 0.000781 µM
[24] = RPMI 5 mM glucose + 10% dialyzed FBS, 0.00234 µM
[25] = RPMI 5 mM glucose + 10% dialyzed FBS, 0.00702 µM
[26] = RPMI 5 mM glucose + 10% dialyzed FBS, 0.0211 µM
[27] = RPMI 5 mM glucose + 10% dialyzed FBS, 0.0632 µM
[28] = RPMI 5 mM glucose + 10% dialyzed FBS, 0.19 µM
[29] = RPMI 5 mM glucose + 10% dialyzed FBS, 0.569 µM
[30] = RPMI 5 mM glucose + 10% dialyzed FBS, 1.71 µM
[31] = RPMI 5 mM glucose + 10% dialyzed FBS, 5.12 µM
[32] = RPMI 5 mM glucose + 10% dialyzed FBS, 15.4 µM
[33] = RPMI 5 mM glucose + 10% dialyzed FBS, 46.1 µM

| Structure (SMILES) | cell viability [1] [%] | cell viability [2] [%] | cell viability [3] [%] | cell viability [4] [%] | cell viability [5] [%] | cell viability [6] [%] | cell viability [7] [%] | cell viability [8] [%] | cell viability [9] [%] | cell viability [10] [%] | cell viability [11] [%] | cell viability [12] [%] | cell viability [13] [%] | cell viability [14] [%] | cell viability [15] [%] | cell viability [16] [%] | cell viability [17] [%] | cell viability [18] [%] | cell viability [19] [%] | cell viability [20] [%] | cell viability [21] [%] | cell viability [22] [%] | cell viability [23] [%] | cell viability [24] [%] | cell viability [25] [%] | cell viability [26] [%] | cell viability [27] [%] | cell viability [28] [%] | cell viability [29] [%] | cell viability [30] [%] | cell viability [31] [%] | cell viability [32] [%] | cell viability [33] [%] |
| --- | --- | --- | --- | --- | --- | --- | --- | --- | --- | --- | --- | --- | --- | --- | --- | --- | --- | --- | --- | --- | --- | --- | --- | --- | --- | --- | --- | --- | --- | --- | --- | --- | --- |
| Cc1ccc([S+](=O)([O-])NC(=O)NN2CC3CCCC3C2)cc1 (configuration not stated) | 108 | 127 | 114 | 104 | 134 | 113 | 96.6 | 104 | 111 | 53.4 | 30.3 | 98 | 104 | 105 | 104 | 106 | 99.5 | 113 | 102 | 108 | 55.6 | 24.1 | 96.4 | 118 | 101 | 105 | 106 | 110 | 103 | 106 | 110 | 57.3 | 36 |
| CCN(CC)CCNC(=O)c1ccc2nc(-c3ccccc3)c(-c3ccc(CN4CCC(n5c(=O)[nH]c6ccccc65)CC4)cc3)nc2c1 | 95.1 | 124 | 152 | 134 | 112 | 130 | 107 | 93.6 | 10.6 | 8.39 | 4.57 | – | – | – | – | – | – | – | – | – | – | – | – | – | – | – | – | – | – | – | – | – | – |
| Cc1n[nH]c(C)c1Cc1sc2c(c1C(=O)N1C[C@H](O)CO1)c(=O)n(C)c(=O)n2CC(C)C | – | – | – | – | – | – | – | – | – | – | – | 107 | 105 | 102 | 100 | 102 | 102 | 109 | 99.1 | 93.9 | 106 | 109 | 105 | 109 | 117 | 102 | 116 | 104 | 115 | 122 | 113 | 119 | 99.7 |
| COc1cc([C@@H]2c3cc4c(cc3[C@@H](O)C3COC(=O)C32)OCO4)cc(OC)c1O (some centres not stated) | 88.8 | 100 | 101 | 37 | 94.3 | 53.1 | 37.9 | 45.9 | 30.5 | 30.3 | 28.2 | 81.3 | 95.6 | 85.7 | 17.6 | 92 | 82.7 | 20.5 | 22.1 | 19.7 | 20.3 | 19.6 | 88.1 | 95.3 | 91.5 | 32.1 | 90.8 | 73.3 | 25.7 | 26.2 | 22.9 | 23 | 22.3 |
| COc1c(C)c2c(c(O)c1C/C=C(\C)CCC(=O)OCCN1CCOCC1)C(=O)OC2 | 90.3 | 91.9 | 110 | 122 | 112 | 99.8 | 107 | 86.3 | 60.5 | 43.9 | 31.9 | 98.5 | 108 | 98 | 92.7 | 95 | 110 | 107 | 122 | 62.9 | 38.8 | 33.6 | 102 | 108 | 102 | 111 | 104 | 115 | 98.9 | 89 | 64.7 | 49.5 | 42.2 |
| Clc1ccc(C(Cn2ccnc2)OCc2ccc(Sc3ccccc3)cc2)c(Cl)c1 (configuration not stated) | 126 | 101 | 124 | 120 | 146 | 109 | 126 | 107 | 109 | 98.8 | 104 | 99.2 | 108 | 106 | 111 | 111 | 125 | 104 | 103 | 118 | 70.9 | 63.8 | 111 | 123 | 116 | 112 | 116 | 125 | 134 | 104 | 124 | 88.9 | 59.8 |
| Cc1ccnc(N[S+](=O)([O-])c2ccc(NC(=O)Nc3ccc([S+](=O)([O-])Nc4nccc(C)n4)cc3)cc2)n1 | 100 | 99.6 | 99.3 | 101 | 107 | 20.8 | 37.1 | 7.33 | 6.39 | 4.89 | 2.2 | 97.6 | 83.9 | 83.5 | 90.1 | 86.6 | 36 | 53.1 | 7.07 | 5.88 | 4.91 | 2.42 | 79.3 | 77.8 | 88 | 85.2 | 86.5 | 46.8 | 56 | 6.77 | 5.66 | 4.24 | 2.51 |
| O=C(N[C@H]1CN2CCC1CC2)c1ccc(Cl)cc1 | 91.3 | 106 | 110 | 138 | 123 | 127 | 118 | 107 | 127 | 103 | 68.1 | 97.8 | 97.1 | 103 | 101 | 114 | 103 | 103 | 94.8 | 92.2 | 102 | 98.3 | 107 | 101 | 97.2 | 91.4 | 108 | 109 | 103 | 92.2 | 103 | 106 | 109 |
| COc1ccccc1N1CCN(CC(O)COc2cccc3ccccc23)CC1 (configuration not stated) | – | – | – | – | – | – | – | – | – | – | – | 115 | 131 | 122 | 133 | 132 | 143 | 116 | 115 | 113 | 107 | 23.6 | – | – | – | – | – | – | – | – | – | – | – |
